Test results from patent US20200347043A1, “MODULATORS OF THE INTEGRATED STRESS PATHWAY” (Calico Life Sciences LLC, priority 2019, published 2020).

Test system: HEK293T cells carrying the ATF4 luciferase reporter
Test: ATF4-Luc assay (in vitro model of VWMD)
Assay type: cell-based, human
Details: 1 μg/mL tunicamycin, 7 hours, One Glo luminescence
Summary of the method: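 Tunicamycin (1 μg/mL) stress with co-added compound for 7 hours in HEK293T cells stably carrying an ATF4 5′-UTR–luciferase reporter. EC50 values come from the luminescent signal (One Glo).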

## O=C(NC12CC(NC(=O)[C@H]3C[C@@H](O)c4cc(Cl)ccc4O3)(C1)C2)c1cnc(-c2ccccc2)o1 [Compound 285, N-(3-{[(2R,4R)-6-chloro-4-hydroxy-3,4-dihydro-2H-1-benzopyran-2-carbonyl]amino}bicyclo[11.1]pentan-1-yl)-2-phenyl-1,3-oxazole-5-carboxamide]
Homo sapiens, HEK-293T
  EC50: < 10 nM

## O=C(NC12CC(c3cnn(-c4ccc(Cl)cc4)c3)(C1)C2)[C@@H]1C[C@@H](O)c2cc(Cl)ccc2O1 [Compound 265, (2S,4R)-6-chloro-N-{3-[1-(4-chlorophenyl)-1H-pyrazol-4-yl]bicyclo[1.1.1]pentan-1-yl}-4-hydroxy-3,4-dihydro-2H-1-benzopyran-2-carboxamide]
Homo sapiens, HEK-293T
  EC50: 10 to 50 nM

## O=C(CO[C@H]1C[C@@H](OC(F)(F)F)C1)NC12CC(NC(=O)[C@H]3CC(=O)c4cc(Cl)ccc4O3)(C1)C2 [Compound 162, (2R)-6-chloro-4-oxo-N-[3-(2-{[cis-3-(trifluoromethoxy)cyclobutyl]oxy}acetamido)bicyclo[1.1.1]pentan-1-yl]-3,4-dihydro-2H-1-benzopyran-2-carboxamide]
Homo sapiens, HEK-293T
  EC50: 10 to 50 nM

## O=C(NC12CC(NC(=O)[C@@H]3C[C@@H]3COC(F)(F)F)(C1)C2)[C@H]1C[C@@H](O)c2cc(Cl)ccc2O1 (mixture of isomers) [Compound 299, (2R,4R)-6-chloro-4-hydroxy-N-[3-({(1RS,2SR)-2-[(trifluoromethoxy)methyl]cyclopropane-1-carbonyl}amino)bicyclo[1.1.1]pentan-1-yl]-3,4-dihydro-2H-1-benzopyran-2-carboxamide]
Homo sapiens, HEK-293T
  EC50: 500 to 2000 nM

## O=C1CC(C(=O)N[C@@H]2CC[C@@H](C(=O)N3CC(Oc4ccc(Cl)cc4)C3)OC2)Oc2ccc(Cl)cc21 (stereo partly drawn) [Compound 139, 6-chloro-N-{(3R,6S)-6-[3-(4-chlorophenoxy)azetidine-1-carbonyl]oxan-3-yl}-4-oxo-3,4-dihydro-2H-1-benzopyran-2-carboxamide]
Homo sapiens, HEK-293T
  EC50: 500 to 2000 nM

## O=C(NC12CCC(c3nnc([C@H]4C[C@@H](OC(F)(F)F)C4)o3)(CC1)OC2)[C@@H]1C[C@H](O)c2cc(Cl)ccc2O1 [Compound 190, (2S,4S)-6-chloro-4-hydroxy-N-(1-{5-[cis-3-(trifluoromethoxy)cyclobutyl]-1,3,4-oxadiazol-2-yl}-2-oxabicyclo[2.2.2]octan-4-yl)-3,4-dihydro-2H-1-benzopyran-2-carboxamide]
Homo sapiens, HEK-293T
  EC50: 50 to 250 nM

## O=C(NC12CCC(c3nnc([C@H]4C[C@@H](OC(F)(F)F)C4)o3)(CC1)OC2)[C@H]1C[C@@H](O)c2cc(Cl)ccc2O1 [Compound 191, (2R,4R)-6-chloro-4-hydroxy-N-(1-{5-[cis-3-(trifluoromethoxy)cyclobutyl]-1,3,4-oxadiazol-2-yl}-2-oxabicyclo[2.2.2]octan-4-yl)-3,4-dihydro-2H-1-benzopyran-2-carboxamide]
Homo sapiens, HEK-293T
  EC50: < 10 nM

## O=C(CO[C@H]1C[C@@H](OC(F)(F)F)C1)N[C@H]1C[C@H]2C[C@@H]1C[C@@H]2NC(=O)[C@H]1C[C@@H](O)c2cc(Cl)ccc2O1 (relative stereo) [Compound 210, (2R,4R)-6-chloro-4-hydroxy-N-[(1R*,2S*,4R*,5S*)-5-(2-{[cis-3-(trifluoromethoxy)cyclobutyl]oxy}acetamido)bicyclo[2.2.1]heptan-2-yl]-3,4-dihydro-2H-1-benzopyran-2-carboxamide]
Homo sapiens, HEK-293T
  EC50: < 10 nM

## O=C1CC(C(=O)NC23CCC(c4nnc(C5CC(OC(F)(F)F)C5)o4)(C2)C3)Oc2ccc(Cl)cc21 (stereo not drawn) [Compound 150, 6-chloro-4-oxo-N-(4-{5-[(1s,3s)-3-(trifluoromethoxy)cyclobutyl]-1,3,4-oxadiazol-2-yl}bicyclo[2.1.1]hexan-1-yl)-3,4-dihydro-2H-1-benzopyran-2-carboxamide]
Homo sapiens, HEK-293T
  EC50: > 2000 nM

## O=C1C[C@H](C(=O)NC23CC(c4nnc(COc5ccc(Cl)c(F)c5)o4)(C2)C3)Oc2ccc(Cl)cc21 [Compound 108, (2R)-6-chloro-N-(3-{5-[(4-chloro-3-fluorophenoxy)methyl]-1,3,4-oxadiazol-2-yl}bicyclo[1.1.1]pentan-1-yl)-4-oxo-3,4-dihydro-2H-1-benzopyran-2-carboxamide]
Homo sapiens, HEK-293T
  EC50: < 10 nM

## O=C(COc1ccc(Cl)c(F)c1)N[C@H]1C[C@H]2O[C@@H]1C[C@@H]2c1nnc([C@H]2C[C@@H](OC(F)(F)F)C2)o1 (racemic) [Compound 168, 2-(4-chloro-3-fluorophenoxy)-N-[rac-(1R,2S,4R,5S)-5-{5-[cis-3-(trifluoromethoxy)cyclobutyl]-1,3,4-oxadiazol-2-yl}-7-oxabicyclo[2.2.1]heptan-2-yl]acetamide]
Homo sapiens, HEK-293T
  EC50: 250 to 500 nM

## O=C(COc1ccc(Cl)c(F)c1)NC12CCC(c3nnc([C@H]4C[C@@H](OC(F)(F)F)C4)o3)(CC1)CC2O (stereo partly drawn) [Compound 124, 2-(4-chloro-3-fluorophenoxy)-N-(2-hydroxy-4-{5-[(1s,3s)-3-(trifluoromethoxy)cyclobutyl]-1,3,4-oxadiazol-2-yl}bicyclo[2.2.2]octan-1-yl)acetamide]
Homo sapiens, HEK-293T
  EC50: 10 to 50 nM

## O=C1CC(C(=O)NC23CC(C(=O)NCc4ccc(C(F)(F)F)cn4)(C2)C3)Oc2ccc(Cl)cc21 (stereo not drawn) [Compound 134, 6-chloro-4-oxo-N-[3-({[5-(trifluoromethyl)pyridin-2-yl]methyl}carbamoyl)bicyclo[1.1.1]pentan-1-yl]-3,4-dihydro-2H-1-benzopyran-2-carboxamide]
Homo sapiens, HEK-293T
  EC50: 250 to 500 nM

## O=C(NC12CC(n3ccc(-c4ccc(Cl)cc4)c3)(C1)C2)[C@H]1C[C@@H](O)c2cc(Cl)ccc2O1 [Compound 240, (2R,4R)-6-chloro-N-{3-[3-(4-chlorophenyl)-1H-pyrrol-1-yl]bicyclo[1.1.1]pentan-1-yl}-4-hydroxy-3,4-dihydro-2H-1-benzopyran-2-carboxamide]
Homo sapiens, HEK-293T
  EC50: < 10 nM

## O=C1CC(C(=O)NC23CC(n4cnc(-c5ccc(F)c(F)c5)c4)(C2)C3)Oc2ccc(Cl)cc21 (stereo not drawn) [Compound 148, 6-chloro-N-{3-[4-(3,4-difluorophenyl)-1H-imidazol-1-yl]bicyclo[1.1.1]pentan-1-yl}-4-oxo-3,4-dihydro-2H-1-benzopyran-2-carboxamide]
Homo sapiens, HEK-293T
  EC50: 10 to 50 nM

## O=C(NC12CC(C3=NOC([C@H]4C[C@@H](O)C4)C3)(C1)C2)[C@@H]1C[C@@H](O)c2cc(Cl)ccc2O1 (stereo partly drawn) [Compound 228, (2S,4R)-6-chloro-4-hydroxy-N-(3-{5-[cis-3-hydroxycyclobutyl]-4,5-dihydro-1,2-oxazol-3-yl}bicyclo[1.1.1]pentan-1-yl)-3,4-dihydro-2H-1-benzopyran-2-carboxamide]
Homo sapiens, HEK-293T
  EC50: > 2000 nM

## O=C1CC(C(=O)N[C@@H]2CC[C@@H](C(=O)NCc3cn4ccc(Cl)cc4n3)OC2)Oc2ccc(Cl)cc21 (stereo partly drawn) [Compound 140, 6-chloro-N-[(3R,6S)-6-{[(7-chloroimidazo[1,2-a]pyridin-2-yl)methyl]carbamoyl}oxan-3-yl]-4-oxo-3,4-dihydro-2H-1-benzopyran-2-carboxamide]
Homo sapiens, HEK-293T
  EC50: 50 to 250 nM

## O=C(NC12CC(n3cnc(-c4ccc(Cl)cc4)c3)(C1)C2)[C@H]1C[C@@H](O)c2cc(Cl)ccc2O1 [Compound 281, (2R,4R)-6-chloro-N-{3-[4-(4-chlorophenyl)-1H-imidazol-1-yl]bicyclo[1.1.1]pentan-1-yl}-4-hydroxy-3,4-dihydro-2H-1-benzopyran-2-carboxamide]
Homo sapiens, HEK-293T
  EC50: < 10 nM

## O=C(CO[C@H]1C[C@@H](OC(F)(F)F)C1)NC12CC(NC(=O)[C@H]3C[C@@H](O)c4cc(Cl)ccc4O3)(C1)C2 (racemic) [Compound 114, rac-(2R,4R)-6-chloro-4-hydroxy-N-[3-(2-{[(1s,3s)-3-(trifluoromethoxy)cyclobutyl]oxy}acetamido)bicyclo[1.1.1]pentan-1-yl]-3,4-dihydro-2H-1-benzopyran-2-carboxamide]
Homo sapiens, HEK-293T
  EC50: < 10 nM

## O=C(NC12CCC(NC(=O)[C@H]3C[C@@H](OC(F)(F)F)C3)(CC1)[C@@H](O)C2)[C@@H]1C[C@H](O)c2cc(Cl)ccc2O1 (racemic) [Compound 147, (2S,4S)-6-chloro-4-hydroxy-N-[(3S)-3-hydroxy-4-{[(1s,3R)-3-(trifluoromethoxy)cyclobutane-1-carbonyl]amino}bicyclo[2.2.2]octan-1-yl]-3,4-dihydro-2H-1-benzopyran-2-carboxamide and (2R,4R)-6-chloro-4-hydroxy-N-[(3S)-3-hydroxy-4-{[(1s,3R)-3-(trifluoromethoxy)cyclobutane-1-carbonyl]amino}bicyclo[2.2.2]octan-1-yl]-3,4-dihydro-2H-1-benzopyran-2-carboxamide]
Homo sapiens, HEK-293T
  EC50: 250 to 500 nM

## O=C(NC12CC(N3CCC(c4ccc(Cl)cc4)C3=O)(C1)C2)[C@H]1C[C@@H](O)c2cc(Cl)ccc2O1 (single isomer, unassigned) [Compound 226, (2R,4R)-6-chloro-N-{3-[(3S*)-3-(4-chlorophenyl)-2-oxopyrrolidin-1-yl]bicyclo[1.1.1]pentan-1-yl}-4-hydroxy-3,4-dihydro-2H-1-benzopyran-2-carboxamide]
  EC50: 500 to 2000 nM

## O=C(NC12CC(n3cnc(-c4ccc(F)c(F)c4)c3)(C1)C2)[C@@H]1C[C@H](O)c2cc(Cl)ccc2O1 [Compound 180, (2S,4S)-6-chloro-N-{3-[4-(3,4-difluorophenyl)-1H-imidazol-1-yl]bicyclo[1.1.1]pentan-1-yl}-4-hydroxy-3,4-dihydro-2H-1-benzopyran-2-carboxamide]
Homo sapiens, HEK-293T
  EC50: 50 to 250 nM

## O=C(NC12CC(c3cnc(-c4ccc(Cl)c(F)c4)o3)(C1)C2)[C@H]1C[C@@H](O)c2cc(Cl)ccc2O1 [Compound 305, (2R,4R)-6-chloro-N-{3-[2-(4-chloro-3-fluorophenyl)-1,3-oxazol-5-yl]bicyclo[1.1.1]pentan-1-yl}-4-hydroxy-3,4-dihydro-2H-1-benzopyran-2-carboxamide]
Homo sapiens, HEK-293T
  EC50: < 10 nM

## O=C(NC12CC(c3cc([C@H]4C[C@@H](OC(F)(F)F)C4)on3)(C1)C2)[C@@H]1C[C@@H](O)c2cc(Cl)ccc2O1 [Compound 283, (2S,4R)-6-chloro-4-hydroxy-N-(3-{5-[cis-3-(trifluoromethoxy)cyclobutyl]-1,2-oxazol-3-yl}bicyclo[1.1.1]pentan-1-yl)-3,4-dihydro-2H-1-benzopyran-2-carboxamide]
Homo sapiens, HEK-293T
  EC50: 50 to 250 nM
